Here are results for four compounds from paper PMC6837752, “Effectiveness of four types of neuraminidase inhibitors approved in Japan for the treatment of influenza” (PLoS ONE, 2019).

Values joined by “and” are separate entries in the source; they are usually repeats but may differ in a detail not shown here. Equal entries are not always repeated.

The test system of test [1] is H275Y mutated (oseltamivir-resistant) influenza A/H1N1pdm09 virus. The settings on record: human, in vivo.
For test [2], the system named is oseltamivir and peramivir-resistant influenza A/H1N1pdm09. To be noted: five cases, treatment with oseltamivir or peramivir; cited from earlier work.
In test [3] the target is neuraminidase of H275Y mutated influenza A/H1N1pdm09 virus isolates (Influenza A virus (H1N1pdm09), UniProt C3W5S3, H275Y). It counts as biochemical. To be noted: read-out: 50% inhibitory concentration.

In the case of `[H]/N=C(\N)N[C@H]1C=C(C(=O)O)O[C@@H]([C@H](OC)[C@H](O)CO)[C@@H]1NC(C)=O` [Laninamivir, laninamivir], in test [1], the “Time to fever alleviation” value was not above 48 h.
As to `CCOC(=O)C1=C[C@@H](OC(CC)CC)[C@H](NC(C)=O)[C@@H](N)C1` [Oseltamivir, oseltamivir], in test [1], the Average fever duration is 89 h and 89 ± 47 h; the “Patients with fever alleviated within 48 hours” value stood at 40%; the “Patients with prolonged fever, which continued for more than 100 hours” value was 60%. Also, the “Time until fever subsided from the start of treatment” value in test [2] is not above 48 h.
In the case of `CC(=O)N[C@H]1[C@H]([C@H](O)[C@H](O)CO)OC(C(=O)O)=C[C@@H]1N=C(N)N` [Zanamivir, zanamivir], the “Time to fever alleviation” value in test [1] was not above 48 h.
As to peramivir, the “Time until fever subsided from the start of treatment” value in test [2] was not above 48 h. In addition, the IC50 in test [3] is 24.7 nM and 22.1 nM and 29.8 nM and 19.1 nM and 18.7 nM and 22.4 nM and 23.3 nM.
